How the values were obtained:
[1] = In vivo metabolism (radio-RP-HPLC and radio-MLC of plasma, brain, urine); set-up: species or system CD-1 mice; conditions: 30 min p.i.
Experimental: The radiotracer [^18F]BA3 (~30 MBq in 200 µL isotonic saline) was administered via the tail vein in non-anesthetized female CD-1 mice (n = 2). At 30 min p.i., the animals were anesthetized by isoflurane inhalation and blood was sampled from the retro-orbital plexus. After cervical dislocation, urine was obtained and the brain was isolated. Plasma was obtained by centrifugation of the blood sample (8000× g, 2 min), and the brain was homogenized in ~1 mL distilled water on ice using a glass/PTFE Potter Homogenizer (Potter S Homogenizer, B. Braun Melsungen AG, Melsungen, Germany).
Protein precipitation was performed by addition of an ice-cold MeCN/H2O mixture (9:1, v/v) in a ratio of 4:1 (v/v) of organic solvent to plasma or brain homogenate, respectively. The samples were vortexed for 3 min, equilibrated on ice for 3 min, and centrifuged for 10 min at 10,000 rpm. The precipitates were washed with 100 μL of the solvent mixture and subjected to the same procedure. The combined supernatants were concentrated at 70 °C under argon flow to a final volume of approximately 100 μL and analysed by analytical radio-RP-HPLC with a gradient system (see quality control section). The peak corresponding to the radiotracer in the radio-chromatogram was identified by co-injecting the sample with the reference compound BA3. To determine the percentage of activity in the supernatants compared with total activity, aliquots of each step as well as the precipitates were quantified by an automated gamma counter (1480 WIZARD, Perkin Elmer, Turku, Finland). For plasma and brain samples recoveries of 97% and 95%, respectively, of total activity were obtained.
For the preparation of the MLC samples, 20 µL of mouse plasma was dissolved in 200 µL of an aqueous 200 mM sodium dodecyl sulfate (SDSaq) solution and injected into the MLC system. For brain samples, 400 µL brain homogenate was dissolved in 800 µL 200 mM SDSaq, heated for 5 min at 70 °C and centrifuged for 5 min at 10,000 rpm. The MLC system was built up as earlier described. Separations were performed by using a Reprosil-Pur C18-AQ column (250 × 4.6 mm, 10 µm + 10 mm pre-column) and an eluent mixture of EtOH/100 mM SDSaq/25 mM (NH4)2HPO4 in gradient mode (0–10 min at 100% 100 mM SDSaq, 10–15 min up to 10% EtOH, 15–20 min at 10% EtOH, 20–21 min up to 100% 100 mM SDSaq; 21–30 min at 100% 100 mM SDSaq) at a flow rate of 1.0 mL/min.

human recombinant HDAC1 = target: T1, human recombinant HDAC1 (Homo sapiens, UniProt Q13547); test: Inhibition assay HDAC1 (fluorogenic substrate ZMAL); assay type: biochemical; conditions: 60 min preincubation at 25 °C
T1 construct: purchased BPS Bioscience Inc. 50051
Experimental: (§1) In vitro inhibitory activities against HDAC1−3 and HDAC6 were measured as previously published with minor modifications. […] Subsequently, 50 µL trypsin solution (0.4 mg/mL trypsin in buffer: 50 mM Tris−HCl, pH = 8.0, 100 mM NaCl) was added, followed by additional 30 min of incubation at 37 °C. […] All compounds were tested at least twice in duplicates.

human recombinant HDAC2 = target: T2, human recombinant HDAC2 (Homo sapiens, UniProt Q92769); test: Inhibition assay HDAC2 (fluorogenic substrate ZMAL); assay type: biochemical; conditions: 60 min preincubation at 25 °C
T2 construct: purchased BPS Bioscience Inc. 50052
Experimental: as §1

[2] = target: human recombinant HDAC3/NcoR2 (Homo sapiens, UniProt O15379); test: Inhibition assay HDAC3 (fluorogenic substrate ZMAL); assay type: biochemical; conditions: HDAC1 over HDAC3, from IC50 values
Experimental: as §1

Radiochemical stability = assay type: physicochemical; conditions: room temperature, more than two hours
Experimental: Radiochemical stability of [^18F]BA3 was investigated in 0.9% NaCl solution (containing 10% EtOH) and in n-octanol at room temperature for 2 h. Samples were analysed by radio-RP-HPLC (see quality control). The LogD7.4 value of [^18F]BA3 was experimentally determined in n-octanol/phosphate-buffered saline (PBS, pH = 7.4) at room temperature by the shake-flask method as described previously. Briefly, small tracer amounts (~800 kBq) were added to a mixture of 3 mL n-octanol and 3 mL PBS. After shaking for 20 min, the samples were centrifuged (10,000 rpm, 5 min) and 1 mL aliquots of the organic as well as aqueous layer were taken and measured in a gamma counter (1480 WIZARD, Perkin Elmer, Turku, Finland). Another 1 mL aliquot of the organic layer was mixed with 2 mL n-octanol and 3 mL PBS and subjected to the same procedure until constant partition coefficient values had been obtained. The measurement was performed twice in quadruplicate.

[3] = radio-RP-HPLC, individual values of 2 mice

T2 sequence (Q92769 whole entry): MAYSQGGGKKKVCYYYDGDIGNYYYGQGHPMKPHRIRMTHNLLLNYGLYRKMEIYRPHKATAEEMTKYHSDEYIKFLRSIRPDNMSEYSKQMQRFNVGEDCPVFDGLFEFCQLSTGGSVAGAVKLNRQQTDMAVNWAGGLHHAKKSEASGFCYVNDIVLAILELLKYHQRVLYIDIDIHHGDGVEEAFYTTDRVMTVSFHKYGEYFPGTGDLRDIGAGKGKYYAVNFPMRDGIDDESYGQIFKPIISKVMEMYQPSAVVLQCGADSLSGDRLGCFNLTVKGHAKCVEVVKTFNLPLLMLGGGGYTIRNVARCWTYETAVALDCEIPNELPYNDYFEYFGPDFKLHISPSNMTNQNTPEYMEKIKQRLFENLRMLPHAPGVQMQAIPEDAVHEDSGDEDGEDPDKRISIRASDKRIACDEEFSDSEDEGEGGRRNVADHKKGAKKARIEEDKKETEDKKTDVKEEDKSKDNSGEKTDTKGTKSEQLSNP
T1 sequence (Q13547 whole entry): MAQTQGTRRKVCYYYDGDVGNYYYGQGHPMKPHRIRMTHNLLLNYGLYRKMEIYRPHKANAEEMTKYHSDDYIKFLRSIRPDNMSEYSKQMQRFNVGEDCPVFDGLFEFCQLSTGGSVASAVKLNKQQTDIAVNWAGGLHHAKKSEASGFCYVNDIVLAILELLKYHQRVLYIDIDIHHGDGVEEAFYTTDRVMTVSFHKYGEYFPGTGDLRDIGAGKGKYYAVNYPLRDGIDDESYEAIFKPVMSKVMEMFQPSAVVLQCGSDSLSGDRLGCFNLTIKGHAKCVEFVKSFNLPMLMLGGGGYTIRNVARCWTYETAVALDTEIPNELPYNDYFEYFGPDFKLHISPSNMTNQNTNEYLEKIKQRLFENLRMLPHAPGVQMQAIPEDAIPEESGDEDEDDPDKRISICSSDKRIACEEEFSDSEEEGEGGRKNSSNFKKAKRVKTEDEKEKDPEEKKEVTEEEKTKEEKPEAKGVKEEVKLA
Sequence of human recombinant HDAC3/NcoR2 (O15379 whole entry): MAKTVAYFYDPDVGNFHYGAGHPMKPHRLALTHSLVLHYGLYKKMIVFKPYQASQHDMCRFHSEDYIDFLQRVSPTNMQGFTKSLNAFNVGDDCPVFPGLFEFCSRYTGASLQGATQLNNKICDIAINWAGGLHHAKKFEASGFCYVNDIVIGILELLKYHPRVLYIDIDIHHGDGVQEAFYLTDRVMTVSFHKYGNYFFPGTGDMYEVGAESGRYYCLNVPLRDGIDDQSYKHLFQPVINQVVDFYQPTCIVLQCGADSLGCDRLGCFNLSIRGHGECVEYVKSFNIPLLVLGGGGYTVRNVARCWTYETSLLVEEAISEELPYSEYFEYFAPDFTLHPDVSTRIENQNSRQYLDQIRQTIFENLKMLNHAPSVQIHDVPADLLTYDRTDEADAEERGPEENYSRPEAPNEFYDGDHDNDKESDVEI
Sequence of human recombinant HDAC3/NcoR2 (Q9Y618 395-489 partner limits assumed): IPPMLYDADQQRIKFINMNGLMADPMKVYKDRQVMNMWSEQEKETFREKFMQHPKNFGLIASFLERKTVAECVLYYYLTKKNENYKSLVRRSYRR

CC([18F])C(=O)NCc1ccc(C(=O)Nc2cc(-c3ccsc3)ccc2N)cc1 (stereo not drawn) [[^18F]BA3]
intact radiotracer, share of total activity in brain ([1]; radio-MLC, mean, n = 2): ~24%
intact radiotracer, share of total activity in plasma ([1]; radio-MLC, mean, n = 2): about 6%
intact radiotracer in urine ([1]; radio-RP-HPLC and radio-MLC): not detected
Brain [%] of activity [1, 3]: 20 / 23
Plasma [%] of activity [1, 3]: 3 / 7
share of total activity in brain ([1]; radio-RP-HPLC, mean, n = 2): 21%
share of total activity in plasma ([1]; radio-RP-HPLC, mean, n = 2): about 5%
IC50 (human recombinant HDAC1): 0.0048 ± 0.0006 µM
IC50 (human recombinant HDAC2): 0.0399 ± 0.0032 µM
specificity ratio (HDAC1/HDAC3) [2]: > 230
radiochemical purity (stability) (Radiochemical stability; in n-octanol): > 99%
radiochemical purity (stability) (Radiochemical stability; in saline formulation containing 10% EtOH): > 99%

Reference: PMC8950173 (Pharmaceuticals, 2022)
